PubChem BioAssay (NCI)
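Step 1: Grow cells in 96-well plates. Step 2: Expose to compound for 48 hours at 5 concentrations. Step 3: Interpolate endpoints linearly; if unreached, use highest concentration. The concentration for full growth arrest is given as TGI.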

Legend:
Experiment in all cases: growth of human tumour cells (NCI), 48 h
SF-539 CNS = system: SF-539 CNS
MOLT-4 leukemia = system: MOLT-4 leukemia
DLD-1 colon = system: DLD-1 colon
HCC-2998 colon = system: HCC-2998 colon
A549 NSCLC = system: A549 NSCLC
NCI-H23 lung = system: NCI-H23 lung
SN12C renal = system: SN12C renal
LXFL 529 NSCLC = system: LXFL 529 NSCLC
DMS 273 small cell lung = system: DMS 273 small cell lung
UACC-257 melanoma = system: UACC-257 melanoma
SK-MEL-2 melanoma = system: SK-MEL-2 melanoma
NCI-H522 lung = system: NCI-H522 lung
SF-295 CNS = system: SF-295 CNS
786-0 renal = system: 786-0 renal
IGROV1 ovarian = system: IGROV1 ovarian
RXF 393 renal = system: RXF 393 renal
SNB-19 CNS = system: SNB-19 CNS
UO-31 renal = system: UO-31 renal
KM20L2 colon = system: KM20L2 colon
SR leukemia = system: SR leukemia
K-562 leukemia = system: K-562 leukemia
ACHN renal = system: ACHN renal
EKVX NSCLC = system: EKVX NSCLC
CCRF-CEM leukemia = system: CCRF-CEM leukemia
OVCAR-8 ovarian = system: OVCAR-8 ovarian
OVCAR-3 ovarian = system: OVCAR-3 ovarian
NCI-H226 lung = system: NCI-H226 lung
HT29 colon = system: HT29 colon
OVCAR-5 ovarian = system: OVCAR-5 ovarian
SK-MEL-28 melanoma = system: SK-MEL-28 melanoma
NCI-H460 lung = system: NCI-H460 lung
HCT-15 colon = system: HCT-15 colon
SK-OV-3 ovarian = system: SK-OV-3 ovarian
M14 melanoma = system: M14 melanoma
LOX IMVI melanoma = system: LOX IMVI melanoma
UACC-62 melanoma = system: UACC-62 melanoma
HOP-92 NSCLC = system: HOP-92 NSCLC
SK-MEL-5 melanoma = system: SK-MEL-5 melanoma
XF 498 CNS = system: XF 498 CNS
SW-620 colon = system: SW-620 colon
HL-60(TB) leukemia = system: HL-60(TB) leukemia
HCT-116 colon = system: HCT-116 colon
RPMI-8226 leukemia = system: RPMI-8226 leukemia
SNB-78 CNS = system: SNB-78 CNS
KM12 colon = system: KM12 colon
HOP-18 NSCLC = system: HOP-18 NSCLC
COLO 205 colon = system: COLO 205 colon
SF-268 CNS = system: SF-268 CNS
U251 CNS = system: U251 CNS
MALME-3M melanoma = system: MALME-3M melanoma
TK-10 renal = system: TK-10 renal
SNB-75 CNS = system: SNB-75 CNS
OVCAR-4 ovarian = system: OVCAR-4 ovarian
M19-MEL melanoma = system: M19-MEL melanoma
HOP-62 NSCLC = system: HOP-62 NSCLC
A498 renal = system: A498 renal
DMS 114 small cell lung = system: DMS 114 small cell lung
CAKI-1 renal = system: CAKI-1 renal

Measured: TGI

NC1=NS(=O)(=O)Nc2nc(-c3ccccc3)c(-c3ccccc3)nc21
not listed: HOP-62 NSCLC | A498 renal | DMS 114 small cell lung | CAKI-1 renal
> 100 µM: all other assays above

N#Cc1cccc(N2C(=O)c3ccc(C(=O)c4ccc5c(c4)C(=O)N(c4cccc(C#N)c4)C5=O)cc3C2=O)c1
not listed: HCC-2998 colon | SR leukemia | ACHN renal | SK-MEL-28 melanoma
> 100 µM: all other assays above
